Experimental data published in US9199949B2, “Selective glycosidase inhibitors and uses thereof” (Alectos Therapeutics Inc., priority 2011, dated 2015).

Legend:
[1] = Assay for determination of apparent permeability (Papp) in LLC-PK1 cells; assay type: in vitro ADME; settings: pig, t=3 h, average of A to B and B to A
Protocol: Bi-directional transport was evaluated in LLC-PK1 cells in order to determine apparent permeability (Papp). LLC-PK1 cells can form a tight monolayer and therefore can be used to assess vectorial transport of compounds from basolateral to apical (B→A) and from apical to basolateral (A→B).
To determine Papp, LLC-PK1 cells were cultured in 96-well transwell culture plates (Millipore). Solutions containing the test compounds (1 μM) were prepared in Hank's Balanced Salt Solution with 10 mM HEPES. Substrate solution (150 μL) was added to either the apical (A) or the basolateral (B) compartment of the culture plate, and buffer (150 μL) was added to the compartment opposite to that containing the compound. At t=3 h, 50 μL samples were removed from both sides of monolayers dosed with test compound and placed in 96 well plates, scintillant (200 μL) or internal standard (100 μL labetolol 1 μM) was added to the samples and concentration was determined by liquid scintillation counting in a MicroBeta Wallac Trilux scintillation counter (Perkin Elmer Life Sciences, Boston, Mass.) or by LCMS/MS (Applied Biosystems SCIEX API 5000 triple quadruple mass spectrometer). [^3H]Verapamil (1 μM) was used as the positive control. The experiment was performed in triplicate.
[formula] Where: Volume of Receptor Chamber was 0.15 mL; Area of membrane was 0.11 cm^2; the Initial Concentration is the sum of the concentration measured in the donor plus concentration measured in receiver compartments at t=3 h; Δ in Concentration is concentration in the receiver compartment at 3 h; and Δ in Time is the incubation time (3×60×60=10800 s). Papp was expressed as 10^−6 cm/s.

human O-GlcNAcase = human O-GlcNAcase (Homo sapiens (Human), UniProt O60502); assay: Assay for determination of KI values for inhibition of O-GlcNAcase activity (fluorescence-based hOGA); assay type: biochemical; settings: purified human O-GlcNAcase, 4-Methylumbelliferyl N-acetyl-β-D-glucosaminide substrate, pH 7.0, Cheng-Prusoff
Sequence of human O-GlcNAcase (O60502 whole entry): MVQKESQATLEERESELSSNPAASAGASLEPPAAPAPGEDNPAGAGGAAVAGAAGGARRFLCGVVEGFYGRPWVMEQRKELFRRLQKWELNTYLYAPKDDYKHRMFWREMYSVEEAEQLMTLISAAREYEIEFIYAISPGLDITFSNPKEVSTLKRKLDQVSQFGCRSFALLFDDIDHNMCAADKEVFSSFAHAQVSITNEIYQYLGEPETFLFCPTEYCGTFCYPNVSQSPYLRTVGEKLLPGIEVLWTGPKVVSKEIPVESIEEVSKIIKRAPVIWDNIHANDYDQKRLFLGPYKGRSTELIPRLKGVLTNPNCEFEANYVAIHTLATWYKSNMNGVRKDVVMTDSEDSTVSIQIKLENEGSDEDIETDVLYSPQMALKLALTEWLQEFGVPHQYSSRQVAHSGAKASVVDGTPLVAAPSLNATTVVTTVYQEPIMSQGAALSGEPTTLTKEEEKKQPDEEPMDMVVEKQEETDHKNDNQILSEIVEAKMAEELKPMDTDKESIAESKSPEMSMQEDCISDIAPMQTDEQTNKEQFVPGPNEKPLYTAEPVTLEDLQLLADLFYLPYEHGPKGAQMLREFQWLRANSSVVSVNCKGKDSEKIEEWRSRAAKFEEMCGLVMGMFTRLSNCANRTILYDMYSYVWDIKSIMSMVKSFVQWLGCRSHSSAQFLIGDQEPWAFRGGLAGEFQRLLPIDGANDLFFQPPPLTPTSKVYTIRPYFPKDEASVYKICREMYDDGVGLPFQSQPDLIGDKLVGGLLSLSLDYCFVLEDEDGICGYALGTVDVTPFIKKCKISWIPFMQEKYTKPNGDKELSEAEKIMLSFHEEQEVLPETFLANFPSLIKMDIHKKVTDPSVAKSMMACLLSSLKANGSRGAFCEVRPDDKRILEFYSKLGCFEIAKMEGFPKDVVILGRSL
Protocol: Experimental Procedure for Kinetic Analyses: Enzymatic reactions were carried out in a reaction containing 50 mM NaH2PO4, 100 mM NaCl and 0.1% BSA (pH 7.0) using 2 mM 4-Methylumbelliferyl N-acetyl-β-D-glucosaminide dihydrate (Sigma M2133) dissolved in ddH2O, as a substrate. The amount of purified human O-GlcNAcase enzyme used in the reaction was 0.7 nM. Test compound of varying concentrations was added to the enzyme prior to initiation of the reaction. The reaction was performed at room temperature in a 96-well plate and was initiated with the addition of substrate. […] The slope of product production was determined for each concentration of compound tested and plotted, using standard curve fitting algorithms for sigmoidal dose response curves. The values for a four parameter logistic curve fit of the data were determined.

O-GlcNAcase = O-GlcNAcase (Rattus norvegicus (Rat), UniProt Q8VIJ5); assay: Cell-based ELISA for cellular activity of O-GlcNAcase inhibitors (O-GlcNAcylated protein, RL-2 antibody); settings: rat PC-12 cells, 24 h treatment, O-GlcNAcylated protein by RL-2 ELISA
Sequence of O-GlcNAcase (Q8VIJ5 whole entry): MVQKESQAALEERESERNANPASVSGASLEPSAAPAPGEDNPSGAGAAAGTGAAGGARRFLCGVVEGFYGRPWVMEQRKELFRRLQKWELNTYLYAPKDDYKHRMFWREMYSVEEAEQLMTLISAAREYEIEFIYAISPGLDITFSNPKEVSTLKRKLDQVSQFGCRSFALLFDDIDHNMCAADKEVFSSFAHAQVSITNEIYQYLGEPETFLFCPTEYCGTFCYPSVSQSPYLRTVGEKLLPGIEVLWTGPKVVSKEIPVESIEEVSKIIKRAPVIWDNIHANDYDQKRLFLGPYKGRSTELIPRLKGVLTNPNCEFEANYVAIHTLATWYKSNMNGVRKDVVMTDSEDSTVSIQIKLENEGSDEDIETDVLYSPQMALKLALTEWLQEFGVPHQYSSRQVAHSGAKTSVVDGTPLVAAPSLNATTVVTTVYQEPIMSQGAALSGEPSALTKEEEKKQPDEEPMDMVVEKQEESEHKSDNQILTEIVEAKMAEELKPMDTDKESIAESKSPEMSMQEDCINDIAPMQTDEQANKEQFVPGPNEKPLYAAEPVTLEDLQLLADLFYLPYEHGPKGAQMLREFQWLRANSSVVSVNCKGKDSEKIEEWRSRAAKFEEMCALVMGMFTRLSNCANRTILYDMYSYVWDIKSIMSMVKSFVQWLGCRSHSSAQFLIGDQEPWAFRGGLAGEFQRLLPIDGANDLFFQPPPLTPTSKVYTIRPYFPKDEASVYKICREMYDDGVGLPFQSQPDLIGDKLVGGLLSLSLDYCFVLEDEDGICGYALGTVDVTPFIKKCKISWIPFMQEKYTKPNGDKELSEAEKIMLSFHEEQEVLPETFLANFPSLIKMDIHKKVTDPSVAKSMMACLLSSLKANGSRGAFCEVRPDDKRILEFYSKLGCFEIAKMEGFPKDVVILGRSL
Protocol: Inhibition of O-GlcNAcase, which removes O-GlcNAc from cellular proteins, results in an increase in the level of O-GlcNAcylated protein in cells. An increase in O-GlcNAcylated protein can be measured by an antibody, such as RL-2, that binds to O-GlcNAcylated protein. The amount of O-GlcNAcylated protein:RL2 antibody interaction can be measured by enzyme linked immunosorbant assay (ELISA) procedures.
Compounds to be tested were dissolved in DMSO, either 2 or 10 mM stock solution, and then diluted with DMSO and water in a two-step process using a Tecan workstation. […] To prepare a cell lysate, the media from compound treated cells was removed, the cells were washed once with phosphate buffered saline (PBS) and then lysed for 5 minutes at room temperature in 50 μL of Phosphosafe reagent (Novagen Inc, Madison, Wis.) with protease inhibitors and PMSF. The cell lysate was collected and transferred to a new plate, which was then either coated to assay plates directly or frozen −80° C. until used in the ELISA procedure. If desired, the total protein concentration of samples was determined using 20 μL of the sample using the BCA method.
The ELISA portion of the assay was performed in a black Maxisorp 96-well plate that was coated overnight at 4° C. with 100 μL/well of the cell lysate (1:10 dilution of the lysate with PBS containing protease inhibitors, phosphatase inhibitors, and PMSF). The following day the wells were washed 3 times with 300 μL/well of Wash buffer (Tris-buffered saline with 0.1% Tween 20).
The amount of O-GlcNAcylated protein, as detected by the ELISA assay, was plotted for each concentration of test compound using standard curve fitting algorithms for sigmoidal dose response curves. The values for a four parameter logistic curve fit of the data were determined, with the inflection point of the curve being the potency value for the test compound.

| Structure (SMILES) | Papp at 3 h, 1 μM [1] [×10⁻⁶ cm/s] | Ki (human O-GlcNAcase) [nM] | EC50 (O-GlcNAcase) [nM] |
| --- | --- | --- | --- |
| CNC1=N[C@@H]2[C@@H](O)[C@H](O)[C@@H](CF)C[C@@H]2O1 [Example 2, (3aR,4R,5R,6S,7aS)-6-(fluoromethyl)-2-(methylamino)-3a,4,5,6,7,7a-hexahydrobenzo[d]oxazole-4,5-diol] | 6.5 |  |  |
| CNC1=N[C@@H]2[C@H](F)[C@H](O)[C@@H](CO)C[C@@H]2O1 [Example 12, (3aS,4S,5R,6R,7aS)-4-fluoro-6-(hydroxymethyl)-2-(methylamino)-3a,4,5,6,7,7a-hexahydrobenzo[d]oxazol-5-ol] | 2.2 | 8.6 |  |
| CNC1=N[C@@H]2[C@@H](O)[C@H](O)[C@@H](C(F)F)C[C@@H]2O1 [Example 8, (3aR,4R,5R,6S,7aS)-6-(difluoromethyl)-2-(methylamino)-3a,4,5,6,7,7a-hexahydrobenzo[d]oxazole-4,5-diol] | 2.7 | 1.4 | 4.7 |
| O[C@H]1[C@@H](F)[C@H]2N=C(N3CCC3)O[C@H]2C[C@@H]1C(F)F [Example 15, (3aS,4S,5R,6S,7aS)-2-(azetidin-1-yl)-6-(difluoromethyl)-4-fluoro-3a,4,5,6,7,7a-hexahydrobenzo[d]oxazol-5-ol] | 6.5 | 20.5 |  |
| OC[C@H]1C[C@@H]2OC(N3CCC3)=N[C@@H]2[C@H](F)[C@@H]1O [Example 10, (3aS,4S,5R,6R,7aS)-2-(azetidin-1-yl)-4-fluoro-6-(hydroxymethyl)-3a,4,5,6,7,7a-hexahydrobenzo[d]oxazol-5-ol] |  | 7 |  |
| O[C@@H]1[C@@H](CF)C[C@@H]2OC(N3CCC3)=N[C@@H]2[C@H]1O [Example 4, (3aR,4R,5R,6S,7aS)-2-(azetidin-1-yl)-6-(fluoromethyl)-3a,4,5,6,7,7a-hexahydrobenzo[d]oxazole-4,5-diol] | 5.1 | 1.1 | 5.2 |
| O[C@H]1[C@H](O)[C@@H](C(F)F)C[C@@H]2OC(N3CCC3)=N[C@H]12 [Example 6, (3aR,4R,5R,6S,7aS)-2-(azetidin-1-yl)-6-(difluoromethyl)-3a,4,5,6,7,7a-hexahydrobenzo[d]oxazole-4,5-diol] | 2.8 | 0.7 | 5.1 |
